Article PMC8776092, “A Toxoplasma gondii Oxopurine Transporter Binds Nucleobases and Nucleosides Using Different Binding Modes” (International Journal of Molecular Sciences, 2022)
Values joined by “and” are separate entries in the source; they are usually repeats but may differ in a detail not shown here. Equal entries are not always repeated. Where two headings read alike, the source gives them in different places.

Target: T1, Tg244440 (Toxoplasma gondii, UniProt A0A125YNC9)
T1 sequence (A0A125YNC9 1-462): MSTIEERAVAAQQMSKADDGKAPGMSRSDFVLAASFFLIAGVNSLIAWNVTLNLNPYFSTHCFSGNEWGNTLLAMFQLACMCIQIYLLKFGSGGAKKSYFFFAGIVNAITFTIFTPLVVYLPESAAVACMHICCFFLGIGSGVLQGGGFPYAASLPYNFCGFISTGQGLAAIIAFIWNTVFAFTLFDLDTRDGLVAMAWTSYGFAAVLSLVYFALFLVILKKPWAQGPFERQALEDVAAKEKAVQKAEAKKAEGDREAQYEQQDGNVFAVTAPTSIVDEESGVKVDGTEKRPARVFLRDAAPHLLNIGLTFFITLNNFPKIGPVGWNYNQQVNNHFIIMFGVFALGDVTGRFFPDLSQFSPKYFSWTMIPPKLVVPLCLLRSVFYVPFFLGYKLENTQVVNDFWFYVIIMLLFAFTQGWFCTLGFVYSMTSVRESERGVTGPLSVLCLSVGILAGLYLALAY
Test: [3H]-guanine uptake and its inhibition in T. brucei TbNB-KO procyclics expressing Tg244440 (clone F5)
Format: cell-based
Conditions: for Ki: competition with 50 nM [3H]-guanine, 30 s, Cheng-Prusoff; for ΔG^0 (Gibbs free energy of interaction): calculated from Km or Ki, ΔG0 = −RTln(Ki)
Experimental: Briefly, PCF cells of T. brucei in logarithmic growth were harvested by centrifugation at 1000× g for 10 min, washed twice in AB and then resuspended in fresh buffer at a final density of 10^8 cells/mL. […] Immediately after finishing the assay, all tubes were flash-frozen in liquid nitrogen and the cell pellets were cut into scintillation vials and lysed with a solution of 2% SDS for one hour under agitation. Then, 3 mL of scintillation fluid (Scintilogic U, Lablogic) was added to each vial and left agitating overnight on a rocking platform. The next morning, the vials were vigorously shaken to ensure optimal mixing and the scintillation was measured in a 300SL (Hidex) scintillation counter. All assays were carried out in triplicate. All experimental data such as Km, Ki and Vmax values are the average and SEM of at least three separate experiments, each in triplicate, unless otherwise indicated.
Background scintillation was measured in vials containing no cells or radiolabeled substrate, and counts associated with extracellular radiolabel were calculated from samples where cells were briefly incubated with the same concentration of radiolabel, but in the presence of saturating concentrations of non-radiolabeled substrate before centrifugation through oil. The average of the three control replicates was subtracted from each data point.

Row | Compound | Ki (Ki) [µM] | ΔG^0 (Gibbs free energy of interaction) [kcal/mol] | also measured
1 | Nc1ccnc2c1ncn2[C@@H]1O[C@H](CO)[C@@H](O)[C@H]1O [1-deazaadenosine] | 191 ± 10 | -5.07 | δ(ΔG^0) relative to Adenosine: 0.621 kcal/mol
2 | O=C1CC=Nc2nc[nH]c21 [1-deazahypoxanthine] | 194 ± 43 | -5.07 | δ(ΔG^0) relative to Hypoxanthine: 2.63 kcal/mol
3 | OC[C@H]1O[C@@H](n2cnc3c(O)ccnc32)[C@H](O)[C@@H]1O [1-deazainosine] | 524 ± 53 | – | δ(ΔG^0) relative to Inosine: 2.89 kcal/mol
4 | Nc1nc(N)c2[nH]cnc2n1 [2,6-diaminopurine] | 211 ± 3.5 | -5.02 | δ(ΔG^0) relative to Adenine: -0.406 kcal/mol
5 | Nc1ncnc2c1ncn2[C@H]1C[C@H](O)[C@@H](CO)O1 [2′-deoxyadenosine] | 83.9 ± 6.2 | -5.57 | δ(ΔG^0) relative to Adenosine: 0.12 kcal/mol
6 | Nc1nc2c(ncn2[C@H]2C[C@H](O)[C@@H](CO)O2)c(=O)[nH]1 [2′-deoxyguanosine] | 281 ± 6 | -4.85 | δ(ΔG^0) relative to Guanosine: 2.63 kcal/mol; δ(ΔG^0) relative to Guanosine (listed as 2′-Deoxyguanosine): 2.63 kcal/mol
7 | OC[C@H]1O[C@@H](n2cnc3c(O)ncnc32)C[C@@H]1O [2′-deoxyinosine] | 117 ± 12 | -5.35 | δ(ΔG^0) relative to Inosine: 1.98 kcal/mol
8 | Nc1nccc2c1ncn2[C@@H]1O[C@H](CO)[C@@H](O)[C@H]1O [3-deazaadenosine] | 1220 ± 140 | -3.97 | δ(ΔG^0) relative to Adenosine: 1.72 kcal/mol
9 | O=c1[nH]ccc2nc[nH]c12 [3-deazahypoxanthine] | 59.5 ± 7.2 | -5.76 | δ(ΔG^0) relative to Hypoxanthine: 1.94 kcal/mol
10 | Cn1c(=O)[nH]c(=O)c2[nH]cnc21 [3-methylxanthine] | 14.6 ± 3.1 | -6.6 | –
11 | Nc1ncnc2c1ccn2[C@@H]1O[C@H](CO)C[C@H]1O [3′-deoxy,7-deazaadenosine] | 797 ± 116 | -4.23 | δ(ΔG^0) relative to Adenosine: 1.46 kcal/mol
12 | Nc1ncnc2c1ncn2[C@@H]1O[C@H](CO)C[C@H]1O [3′-deoxyadenosine] | 71.9 ± 2.3 | -5.64 | δ(ΔG^0) relative to Adenosine: 0.024 kcal/mol
13 | Nc1nc2c(ncn2[C@@H]2O[C@H](CO)C[C@H]2O)c(=O)[nH]1 [3′-deoxyguanosine] | 196 ± 12 | -5.07 | δ(ΔG^0) relative to Guanosine: 2.25 kcal/mol and 2.41 kcal/mol
14 | OC[C@@H]1C[C@@H](O)[C@H](n2cnc3c(O)ncnc32)O1 [3′-deoxyinosine] | 102 ± 15 | -5.45 | δ(ΔG^0) relative to Inosine: 1.91 kcal/mol
15 | C[C@H]1O[C@@H](n2cnc3c(N)ncnc32)[C@H](O)[C@@H]1O [5′-deoxyadenosine] | 85.2 ± 4.2 | -5.54 | δ(ΔG^0) relative to Adenosine: 0.14 kcal/mol
16 | C[C@H]1O[C@@H](n2cnc3c(O)ncnc32)[C@H](O)[C@@H]1O [5′-deoxyinosine] | 35.3 ± 3 | -6.07 | δ(ΔG^0) relative to Inosine: 1.29 kcal/mol
17 | Clc1ncnc2nc[nH]c12 [6-Chloropurine] | 109 ± 8 | -5.4 | δ(ΔG^0) relative to Hypoxanthine: 2.29 kcal/mol
18 | Sc1ncnc2nc[nH]c12 [6-Mercaptopurine] | 3.6 ± 0.8 | -7.43 | δ(ΔG^0) relative to Hypoxanthine: 0.287 kcal/mol
19 | CCOc1ncnc2c1c(Cl)cn2[C@@H]1O[C@H](CO)[C@@H](O)[C@H]1O [6-O-ethyl,7-deaza,7-Cl-inosine] | – | -5.14 | Ki (read-out: Ki): 169 ± 10 µM; δ(ΔG^0) relative to Inosine: 2.2 kcal/mol
20 | COc1ncnc2c1c(Cl)cn2[C@@H]1O[C@H](CO)[C@@H](O)[C@H]1O [6-O-methyl,7-deaza,7-Cl-inosine] | – | -6 | Ki (read-out: Ki): 39.6 ± 2.8 µM; δ(ΔG^0) relative to Inosine: 1.36 kcal/mol

Row | Compound | Ki (Ki) [µM] | ΔG^0 (Gibbs free energy of interaction) [kcal/mol] | also measured
21 | Nc1nc2nc[nH]c2c(=S)[nH]1 [6-Thioguanine] | 1.64 ± 0.25 | -7.89 | δ(ΔG^0) relative to Guanine: 0.17 kcal/mol
22 | OC[C@H]1O[C@@H](n2cnc3c(S)ncnc32)[C@H](O)[C@@H]1O [6-thioinosine] | 7.3 ± 1.2 | -7 | δ(ΔG^0) relative to Inosine: 0.335 kcal/mol
23 | O=c1[nH]cnc2[nH]nc(Br)c12 [7-Br-allopurinol] | – | -5.71 | Ki (read-out: Ki): 65.7 ± 3.7 µM
24 | OC[C@H]1O[C@@H](n2ccc3c(O)ncnc32)C[C@@H]1O [7-deaza-2′-deoxyinosine] | 52.3 ± 8.4 | -5.83 | δ(ΔG^0) relative to 2′-Deoxyinosine (relative to 2′-Deoxyinosine): -0.478 kcal/mol
25 | OC[C@@H]1C[C@@H](O)[C@H](n2ccc3c(O)ncnc32)O1 [7-deaza-3′-deoxyinosine] | 70.8 ± 11.2 | -5.66 | δ(ΔG^0) relative to 3′-Deoxyinosine (relative to 3′-Deoxyinosine): -0.22 kcal/mol
26 | OC[C@H]1O[C@@H](n2cc(Br)c3c(O)ncnc32)[C@H](O)[C@@H]1O [7-deaza-7-Bromoinosine] | 7.8 ± 1.2 | -6.98 | Affinity for Tg244440 (in words): high affinity; δ(ΔG^0) relative to Inosine: 0.382 kcal/mol
27 | OC[C@H]1O[C@@H](n2cc(Cl)c3c(O)ncnc32)[C@H](O)[C@@H]1O [7-deaza-7-Chloroinosine] | 8.9 ± 1.3 | -6.88 | Affinity for Tg244440 (in words): high affinity; δ(ΔG^0) relative to Inosine: 0.454 kcal/mol
28 | Nc1nc2c(c(=O)[nH]1)CC=N2 [7-deazaguanine] | 49.2 ± 5.8 | -5.88 | δ(ΔG^0) relative to Guanine: 2.17 kcal/mol
29 | O=c1[nH]cnc2c1CC=N2 [7-deazahypoxanthine] | 318 ± 30 | -4.78 | δ(ΔG^0) relative to Hypoxanthine: 2.94 kcal/mol
30 | OC[C@H]1O[C@@H](n2ccc3c(O)ncnc32)[C@H](O)[C@@H]1O [7-deazainosine] | 6.32 ± 0.32 | -7.1 | δ(ΔG^0) relative to Inosine: 0.263 kcal/mol
31 | O=c1[nH]cnc2nn[nH]c12 [8-azahypoxanthine] | > 1000 | – | inhibition at 1000 µM (read-out: Inhibition of the transport of 50 nM [3H]-guanine): < 50%; δ(ΔG^0) relative to Hypoxanthine: >3.61 kcal/mol
32 | Cn1cnc2c(=O)cc[nH]c21 [9-Me,1-deazahypoxanthine] | – | – | Ki (read-out: Ki): > 1000 µM; δ(ΔG^0) relative to Hypoxanthine: >3.61 kcal/mol
33 | Nc1nc2cc[nH]c2c(=O)[nH]1 [9-deazaguanine] | 9.64 ± 1.59 | -6.84 | δ(ΔG^0) relative to Guanine: 1.22 kcal/mol
34 | O=c1[nH]cnc2cc[nH]c12 [9-deazahypoxanthine] | 9.12 ± 0.66 | -6.88 | δ(ΔG^0) relative to Hypoxanthine: 0.837 kcal/mol
35 | O=c1[nH]c(=O)c2[nH]ccc2[nH]1 [9-deazaxanthine] | 48.2 ± 5.4 | -5.88 | δ(ΔG^0) relative to Xanthine (relative to Xanthine): 0.072 kcal/mol
36 | Nc1ncnc2[nH]cnc12 [Adenine] | 425 ± 80 | -4.59 | Affinity for Tg244440 (in words): Low affinity; δ(ΔG^0) relative to Hypoxanthine: 3.11 kcal/mol
37 | Oc1ncnc2[nH]ncc12 [Allopurinol] | 185 ± 15 | -5.09 | δ(ΔG^0) relative to Hypoxanthine: 2.61 kcal/mol
38 | Nc1ncnc2n[nH]cc12 [Aminopurinol] | – | -4.97 | Ki (read-out: Ki): 223 ± 27 µM; δ(ΔG^0) relative to Adenine: -0.382 kcal/mol
39 | Nc1nc2c(ncn2[C@@H]2O[C@H](CO)[C@@H](O)[C@H]2O)c(=O)[nH]1 [Guanosine] | 3.3 ± 0.3 | -7.48 | δ(ΔG^0) relative to Guanine: 0.574 kcal/mol
40 | OC[C@H]1O[C@@H](n2cnc3cncnc32)[C@H](O)[C@@H]1O [Nebularine, 9-(β-D-ribofuranosyl)purine] | 491 ± 75 | -4.52 | ΔG^0 (Gibbs free energy of interaction) (listed as nebularine): 4.52 kcal/mol; δ(ΔG^0) relative to Adenosine: 1.17 kcal/mol; δ(ΔG^0) relative to Inosine: 2.84 kcal/mol
